According to US20210323977A1, “PYRROLIDINYL AMIDE COMPOUNDS FOR THE TREATMENT OF AUTOIMMUNE DISEASE” (Hoffmann-La Roche Inc., priority 2018, published 2021):

molecular target: T1, human TLR8 (Homo sapiens, UniProt Q9NR97); assay: HEK293-Blue-hTLR-8 cells assay; format: cell-based; details: HEK293-Blue-hTLR8 cells, SEAP reporter, R848 stimulation, 20 hrs
T1 sequence (Q9NR97 27-1041): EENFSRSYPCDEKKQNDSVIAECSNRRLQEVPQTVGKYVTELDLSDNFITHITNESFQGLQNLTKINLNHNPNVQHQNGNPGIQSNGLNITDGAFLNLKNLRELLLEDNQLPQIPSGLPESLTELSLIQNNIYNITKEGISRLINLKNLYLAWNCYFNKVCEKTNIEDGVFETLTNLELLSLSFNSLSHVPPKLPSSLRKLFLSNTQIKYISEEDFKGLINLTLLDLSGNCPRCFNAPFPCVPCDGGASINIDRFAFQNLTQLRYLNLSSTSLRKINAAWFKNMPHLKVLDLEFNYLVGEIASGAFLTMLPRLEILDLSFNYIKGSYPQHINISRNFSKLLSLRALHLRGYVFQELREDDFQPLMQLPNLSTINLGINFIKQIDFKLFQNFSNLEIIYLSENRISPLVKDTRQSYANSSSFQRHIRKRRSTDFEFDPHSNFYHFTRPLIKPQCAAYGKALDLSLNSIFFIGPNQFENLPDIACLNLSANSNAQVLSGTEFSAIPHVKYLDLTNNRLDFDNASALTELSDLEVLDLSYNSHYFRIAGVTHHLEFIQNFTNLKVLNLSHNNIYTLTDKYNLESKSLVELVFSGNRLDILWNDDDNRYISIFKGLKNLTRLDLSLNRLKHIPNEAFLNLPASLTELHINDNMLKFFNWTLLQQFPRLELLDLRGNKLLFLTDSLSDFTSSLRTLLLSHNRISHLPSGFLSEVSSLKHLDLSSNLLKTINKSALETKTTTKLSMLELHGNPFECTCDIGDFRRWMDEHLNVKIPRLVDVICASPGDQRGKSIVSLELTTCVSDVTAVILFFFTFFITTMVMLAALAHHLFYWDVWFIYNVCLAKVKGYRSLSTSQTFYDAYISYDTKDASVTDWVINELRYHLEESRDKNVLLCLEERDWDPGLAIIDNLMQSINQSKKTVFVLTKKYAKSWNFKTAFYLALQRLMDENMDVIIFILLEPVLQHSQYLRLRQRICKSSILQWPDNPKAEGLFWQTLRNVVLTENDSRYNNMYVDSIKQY
From the text: HEK293-Blue-hTLR-8 Cells Assay:
A stable HEK293-Blue-hTLR-8 cell line was purchased from InvivoGen (Cat. #: hkb-htlr8, San Diego, Calif., USA). These cells were originally designed for studying the stimulation of human TLR8 by monitoring the activation of NF-κB. A SEAP (secreted embryonic alkaline phosphatase) reporter gene was placed under the control of the IFN-β minimal promoter fused to five NF-κB and AP-1-binding sites. The SEAP was induced by activating NF-κB and AP-1 via stimulating HEK-Blue hTLR8 cells with TLR8 ligands. Therefore the reporter expression was declined by TLR8 antagonist under the stimulation of a ligand, such as R848, for incubation of 20 hrs. The cell culture supernatant SEAP reporter activity was determined using QUANTI-Blue™ kit (Cat. #: rep-qb1, Invivogen, San Diego, Ca, USA) at a wavelength of 640 nm, a detection medium that turns purple or blue in the presence of alkaline phosphatase.
HEK293-Blue-hTLR8 cells were incubated at a density of 250,000-450,000 cells/mL in a volume of 170 μL in a 96-well plate in Dulbecco's Modified Eagle's medium (DMEM) containing 4.5 g/L glucose, 50 U/mL penicillin, […], […], 2 mM L-glutamine, 10% (v/v) heat-inactivated fetal bovine serum with addition of 20 μL test compound in a serial dilution in the presence of final DMSO at 1% and 10 sL of 60 uM R848 in above DMEM, perform incubation under 37° C. in a CO2 incubator for 20 hrs. Then 20 μL of the supernatant from each well was incubated with 180 sL Quanti-blue substrate solution at 37° C. for 2 hrs and the absorbance was read at 620˜655 nm using a spectrophotometer. The signalling pathway that TLR8 activation leads to downstream NF-κB activation has been widely accepted, and therefore similar reporter assay was modified for evaluating TLR8 antagonist.

IC50	Compound
216 nM	O=C(NC1C2CCCC1CNC2)C1CN(c2ccc(C(F)(F)F)c3nccnc23)CC12CC2 (stereo not shown) [Example 8, N-(3-azabicyclo[3.3.1]nonan-9-yl)-5-[8-(trifluoromethyl)quinoxalin-5-yl]-5-azaspiro[2.4]heptane-7-carboxamide]
30 nM	CN1CCC(NC(=O)C2CN(c3ccc(C(F)(F)F)c4nccnc34)CC23CC3)CC1 (stereo not shown) [Example 11, N-(1-methyl-4-piperidyl)-5-[8-(trifluoromethyl)quinoxalin-5-yl]-5-azaspiro[2.4]heptane-7-carboxamide]
227 nM	O=C(NC1C2CCC1CNC2)C1CN(c2ccc(C(F)(F)F)c3nccnc23)CC12CC2 (stereo not shown) [Example 12, N-(3-azabicyclo[3.2.1]octan-8-yl)-5-[8-(trifluoromethyl)quinoxalin-5-yl]-5-azaspiro[2.4]heptane-7-carboxamide]
156 nM	O=C(NC1CC2CNCC(C2)C1)C1CN(c2ccc(C(F)(F)F)c3nccnc23)CC12CC2 (stereo not shown) [Example 15, N-(3-azabicyclo[3.3.1]nonan-7-yl)-5-[8-(trifluoromethyl)quinoxalin-5-yl]-5-azaspiro[2.4]heptane-7-carboxamide]
369 nM	CN1CC(NC(=O)C2CN(c3ccc(C(F)(F)F)c4nccnc34)CC23CC3)C2(CC2)C1 (stereo not shown) [Example 20, N-(5-methyl-5-azaspiro[2.4]heptan-7-yl)-5-[8-(trifluoromethyl)quinoxalin-5-yl]-5-azaspiro[2.4]heptane-7-carboxamide]
77 nM	O=C(NC1CC2CNCC2C1)C1CN(c2ccc(C(F)(F)F)c3nccnc23)CC12CC2 (stereo not shown) [Example 21, N-(1,2,3,3a,4,5,6,6a-octahydrocyclopenta[c]pyrrol-5-yl)-5-[8-(trifluoromethyl)quinoxalin-5-yl]-5-azaspiro[2.4]heptane-7-carboxamide]
65 nM	NC1CC2(C1)CC(NC(=O)C1CN(c3ccc(C(F)(F)F)c4nccnc34)CC13CC3)C2 (stereo not shown) [Example 22, N-(6-aminospiro[3.3]heptan-2-yl)-5-[8-(trifluoromethyl)quinoxalin-5-yl]-5-azaspiro[2.4]heptane-7-carboxamide]
175 nM	N[C@H]1CC[C@H](NC(=O)C2CN(c3ccc(C(F)(F)F)c4nccnc34)CC23CC3)CC1 (stereo partly shown) [Example 24, N-(4-aminocyclohexyl)-5-[8-(trifluoromethyl)quinoxalin-5-yl]-5-azaspiro[2.4]heptane-7-carboxamide]
152 nM	C[C@@H]1CN(c2ccc(C(F)(F)F)c3nccnc23)C[C@H]1C(=O)NC1CCN(C)CC1 [Example 25, (3S,4S)-4-Methyl-N-(1-methyl-4-piperidyl)-1-[8-(trifluoromethyl)quinoxalin-5-yl]pyrrolidine-3-carboxamide]
44 nM	CN(C)CC1CC(NC(=O)C2CN(c3ccc(C(F)(F)F)c4nccnc34)CC23CC3)C1 (stereo not shown) [Example 26, N-[3-[(dimethylamino)methyl]cyclobutyl]-5-[8-(trifluoromethyl)quinoxalin-5-yl]-5-azaspiro[2.4]heptane-7-carboxamide]
167 nM	NC1CC(CNC(=O)C2CN(c3ccc(C(F)(F)F)c4nccnc34)CC23CC3)C1 (stereo not shown) [Example 31, N-[(3-aminocyclobutyl)methyl]-5-[8-(trifluoromethyl)quinoxalin-5-yl]-5-azaspiro[2.4]heptane-7-carboxamide]
75 nM	Cc1ccc(N2C[C@H](C(=O)NC3CCN(C)CC3)[C@@H](C)C2)c2nccnc12 [Example 33, (3R,4R)-4-Methyl-N-(1-methyl-4-piperidyl)-1-(8-methylquinoxalin-5-yl)pyrrolidine-3-carboxamide]
437 nM	O=C(NC1CC2(CCNCC2)C1)C1CN(c2ccc(C(F)(F)F)c3nccnc23)CC12CC2 (stereo not shown) [Example 34, N-(7-azaspiro[3.5]nonan-2-yl)-5-[8-(trifluoromethyl)quinoxalin-5-yl]-5-azaspiro[2.4]heptane-7-carboxamide]
38 nM	N#Cc1ccc(N2C[C@H](C(=O)NC3CCN(C4CCNCC4)CC3)[C@@H](C(F)(F)F)C2)c2nccnc12 [Example 35, (3R,4R)-1-(8-Cyanoquinoxalin-5-yl)-N-[1-(4-piperidyl)-4-piperidyl]-4-(trifluoromethyl)pyrrolidine-3-carboxamide]
251 nM	N[C@@H]1C[C@H](NC(=O)C2CN(c3ccc(C(F)(F)F)c4nccnc34)CC23CC3)[C@@H]2C[C@@H]21 (stereo partly drawn) [Example 36, N-[(1R,2S,4R,5S)-4-amino-2-bicyclo[3.1.0]hexanyl]-5-[8-(trifluoromethyl)quinoxalin-5-yl]-5-azaspiro[2.4]heptane-7-carboxamide]
172 nM	NC1CC(NC(=O)C2CN(c3ccc(C(F)(F)F)c4nccnc34)CC23CC3)C1 (stereo not shown) [Example 38, N-(3-Aminocyclobutyl)-5-[8-(trifluoromethyl)quinoxalin-5-yl]-5-azaspiro[2.4]heptane-7-carboxamide]
447 nM	N[C@H]1CC[C@@H](NC(=O)C2CN(c3ccc(C(F)(F)F)c4nccnc34)CC23CC3)CC1 (stereo partly shown) [Example 39, N-(4-Aminocyclohexyl)-5-[8-(trifluoromethyl)quinoxalin-5-yl]-5-azaspiro[2.4]heptane-7-carboxamide]
404 nM	C[C@H]1CN(c2ccc(C#N)n3nccc23)C[C@@H]1C(=O)NC1CCN(C)CC1 [Example 44, (3R,4R)-1-(7-cyanopyrazolo[1,5-a]pyridin-4-yl)-4-methyl-N-(1-methyl-4 piperidyl)pyrrolidine-3-carboxamide]

Compound	IC50
O=C(NC1CC2COCC(C1)N2)C1CN(c2ccc(C(F)(F)F)c3nccnc23)CC12CC2 (stereo not shown) [Example 6, N-(3-oxa-9-azabicyclo[3.3.1]nonan-7-yl)-5-[8-(trifluoromethyl)quinoxalin-5-yl]-5-azaspiro[2.4]heptane-7-carboxamide]	291 nM
O=C(NC1CC2CCCC(C1)N2)C1CN(c2ccc(C(F)(F)F)c3nccnc23)CC12CC2 (stereo not shown) [Example 10, N-(9-azabicyclo[3.3.1]nonan-3-yl)-5-[8-(trifluoromethyl)quinoxalin-5-yl]-5-azaspiro[2.4]heptane-7-carboxamide]	245 nM
N#Cc1ccc(N2CC(C(=O)NCC3CNCCO3)C3(CC3)C2)c2nccnc12 (stereo not shown) [Example 13, 5-(8-Cyanoquinoxalin-5-yl)-N-(morpholin-2-ylmethyl)-5-azaspiro[2.4]heptane-7-carboxamide]	48 nM
C[C@H]1CN(c2ccc(C#N)c3ncccc23)C[C@@H]1C(=O)NC1CCN(C)CC1 [Example 16, (3R,4R)-1-(8-cyano-5-quinolyl)-4-methyl-N-(1-methyl-4-piperidyl)pyrrolidine-3-carboxamide]	72 nM
CN1CCC(NC(=O)C2CN(c3ccc(C#N)c4ncccc34)CC2C(F)(F)F)CC1 (stereo not shown) [Example 18, 1-(8-Cyano-5-quinolyl)-N-(1-methyl-4-piperidyl)-4-(trifluoromethyl)pyrrolidine-3-carboxamide]	75 nM
O=C(NC1CC2CCC(C1)N2)C1CN(c2ccc(C(F)(F)F)c3nccnc23)CC12CC2 (stereo not shown) [Example 23, N-(8-azabicyclo[3.2.1]octan-3-yl)-5-[8-(trifluoromethyl)quinoxalin-5-yl]-5-azaspiro[2.4]heptane-7-carboxamide]	243 nM
C[C@H]1CN(c2ccc([N+](=O)[O-])c3ncccc23)C[C@@H]1C(=O)NC1CCN(C)CC1 [Example 27, (3R,4R)-4-Methyl-N-(1-methyl-4-piperidyl)-1-(8-nitro-5-quinolyl)pyrrolidine-3-carboxamide]	52 nM
